Where two headings read alike, the source gives them in different places.
Columns and labels:
[1] = system: MKN1 cells; experiment: MKN1 CTG proliferation assay (120 h) (gastric cancer, wt amplified); type: cell-based; conditions: Homo sapiens
Procedure: MKN1 CTG Proliferation Assay (120 h) (Gastric Cancer, Wt Amplified)
MKN1 cells (JCRB0252) are dispensed into white 384-well plates, flat and white bottom (Corning Costar, PNr.: 3570) at a density of 400 cells per well in 50 μL RPMI 1640 (PAN-Biotech, PNr.: P04-18047)+10% FCS (HyClone, PNr.: SH30084.03) (assay 1) or into white 384-well plates, flat and white bottom (Perkin Elmer, 6007680) at a density of 500 cells per well in 40 μl RPMI (Gibco, PNr.: 21875034)+10% FCS (HyClone, PNr.: SH30084.03) (assay 2) or into black 384-well plates, flat and clear bottom (Greiner, PNr. 781091) at a density of 200 cells per well in 60 μl RPMI-1640 (Gibco #A10491)+10% FCS (HyClone, PNr.: SH30084.03)+PenStrep (Gibco, PNr.15140-122) (assay 3). […] Compounds (10 mM stock in DMSO) are added at logarithmic dose series using the HP Digital Dispenser D300 (Tecan) (assay 1+2) or the ECHO acoustic liquid handler system (Beckman Coulter) (assay 3), including DMSO controls and normalizing for added DMSO. Plates are incubated for 120 h, and cell viability is measured using CellTiter-Glo luminescent cell viability reagent (Promega product code G7570). Viability (stated as percent of control) is defined as relative luminescence units RLU of each well divided by the RLU of cells in DMSO controls. IC50 values are determined from viability measurements by non-linear regression using a four-parameter model.

[2] = system: LOVO cells; experiment: LOVO CTG proliferation assay (120 h) (CRC, G13D); type: cell-based; conditions: Homo sapiens, CTG 120 h
Procedure: LOVO CTG Proliferation Assay (120 h) (CRC, G13D)
LOVO cells (ATCC CCL-229) are dispensed into 384-well plates, flat and clear bottom (Greiner, PNr. 781091) at a density of 1000 cells per well in 60 μL DMEM (Sigma D6429)+10% Fetal Calf Serum (HyClone, PNr.: SH30084.03) and incubated at 37° C. in a CO2 incubator overnight. The next day, compounds (10 mM stock in DMSO) are added with the ECHO acoustic liquid handler system (Beckman Coulter), including DMSO controls. Plates are incubated for 120 h, and cell viability is measured using CellTiter-Glo luminescent cell viability reagent (Promega product code G7570). Viability (stated as percent of control) is defined as relative luminescence units RLU of each well divided by the RLU of cells in DMSO controls. IC50 values are determined from viability measurements by non-linear regression using a four-parameter model.

[3] = Plasma protein binding assay (PPB), equilibrium dialysis, 10% FCS in PBS; type: in vitro ADME; conditions: bovine, read-out: PPB 10% FCS (% fu)
Method in brief: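 Test compound (1-10 μmol/L) in 10% FCS in PBS was dialysed for 3-5 h at 37° C versus PBS ± dextran across a semipermeable membrane. LC-MS of both compartments after protein precipitation gave Cserum and Cbuffer, from which the unbound fraction fu was derived.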

[4] = MKN-1, assay 2, CTG 120 h, read-out: MKN1 (assay 2) IC50
[5] = MKN-1, assay 3, CTG 120 h, read-out: MKN1 (assay 3) IC50

Work on `C[C@H](Oc1cc(N2CCNC3(CC3)C2)nc(-c2onc3c2CCC[C@@]32CCCc3sc(N)c(C#N)c32)n1)[C@@H]1CCCN1C` [I-5] yielded an IC50 [1, 4] of 499 nM, an IC50 [2] of 1640 nM and a fraction unbound [3] of 0.51.

`C[C@H](Oc1cc(N2C[C@H](C)NC3(CC3)C2)nc(-c2onc3c2CCC[C@@]32CCCc3sc(N)c(C#N)c32)n1)[C@@H]1CCCN1C` [I-8] gave an IC50 [1, 5] of 395 nM, an IC50 [2] of 296 nM and a fraction unbound [3] of 0.77.

For `C[C@H](Oc1cc(N2CC[C@H](N(C)C)C2)nc(-c2noc3c2CCC[C@@]32CCCc3sc(N)c(C#N)c32)n1)[C@@H]1CCCN1C` [II-49], the IC50 [1, 4] was over 3000 nM, the IC50 [1, 5] was 501 nM and the IC50 [2] was 651 nM. For the same molecule, the fraction unbound [3] was 0.36.

Work on `C[C@H](Oc1cc(-n2cc3c(n2)CCNC3)nc(-c2noc3c2CCC[C@@]32CCCc3sc(N)c(C#N)c32)n1)[C@@H]1CCCN1C` [II-53] yielded an IC50 [1, 5] of 994 nM, an IC50 [2] of 495 nM and a fraction unbound [3] of 0.29.

Molecule `C[C@H](Oc1cc(N2CCN(C)CC2)nc(-c2noc3c2CCC[C@@]32CCCc3sc(N)c(C#N)c32)n1)[C@@H]1CCCN1C` [II-55] has an IC50 [1, 5] of 876 nM, an IC50 [2] of 1090 nM and a fraction unbound [3] of 0.26.

`C[C@H](Oc1cc(N2C[C@H](C)N[C@@H](C)C2)nc(-c2noc3c2CCC[C@@]32CCCc3sc(N)c(C#N)c32)n1)[C@@H]1CCCN1C` [II-56] showed an IC50 [1, 5] of 660 nM, an IC50 [2] of 661 nM and a fraction unbound [3] of 0.48.

`C[C@H](Oc1cc(N2Cc3cnn(C)c3C2)nc(-c2noc3c2CCC[C@@]32CCCc3sc(N)c(C#N)c32)n1)[C@@H]1CCCN1C` [II-63] gave an IC50 [1, 5] of 578 nM, an IC50 [2] of 640 nM and a fraction unbound [3] of 0.06.

Molecule `C[C@H](Oc1cc(-n2cncn2)nc(-c2noc3c2CCC[C@@]32CCCc3sc(N)c(C#N)c32)n1)[C@@H]1CCCN1C` [II-70] has an IC50 [1, 5] of 387 nM, an IC50 [2] of 77 nM and a fraction unbound [3] of 0.44.

In the case of `C[C@H](Oc1cc(N2CCCC3(COC3)C2)nc(-c2noc3c2CCC[C@@]32CCCc3sc(N)c(C#N)c32)n1)[C@@H]1CCCN1C` [II-72], the IC50 [1, 5] is reported as 68 nM, the IC50 [2] is reported as 55 nM and the fraction unbound [3] is reported as 0.1.

`C[C@H](Oc1cc(N2CCN(C)C2=O)nc(-c2noc3c2CCC[C@@]32CCCc3sc(N)c(C#N)c32)n1)[C@@H]1CCCN1C` [II-75] showed an IC50 [1, 5] of 108 nM, an IC50 [2] of 279 nM and a fraction unbound [3] of 0.16.

`C[C@H](Oc1cc(N2CCOC3(COC3)C2)nc(-c2noc3c2CCC[C@@]32CCCc3sc(N)c(C#N)c32)n1)[C@@H]1CCCN1C` [II-77] showed an IC50 [1, 5] of 18 nM, an IC50 [2] of 39 nM and a fraction unbound [3] of 0.16.

Work on `C[C@H](Oc1cc(-c2ccncc2)nc(-c2noc3c2CCC[C@@]32CCCc3sc(N)c(C#N)c32)n1)[C@@H]1CCCN1C` [II-78] yielded an IC50 [1, 5] of 533 nM, an IC50 [2] of 175 nM and a fraction unbound [3] of 0.49.

Work on `C[C@H](Oc1cc(-c2cncnc2)nc(-c2noc3c2CCC[C@@]32CCCc3sc(N)c(C#N)c32)n1)[C@@H]1CCCN1C` [II-82] yielded an IC50 [1, 5] of 712 nM, an IC50 [2] of 728 nM and a fraction unbound [3] of 0.66.

`C[C@H](Oc1cc(-c2ccccn2)nc(-c2noc3c2CCC[C@@]32CCCc3sc(N)c(C#N)c32)n1)[C@@H]1CCCN1C` [II-85] showed an IC50 [1, 5] of 266 nM, an IC50 [2] of 209 nM and a fraction unbound [3] of 0.08.

Molecule `C[C@H](Oc1cc(-c2cn[nH]c2)nc(-c2noc3c2CCC[C@@]32CCCc3sc(N)c(C#N)c32)n1)[C@@H]1CCCN1C` [II-87] has an IC50 [1, 5] of 302 nM, an IC50 [2] of 427 nM and a fraction unbound [3] of 0.26.

Molecule `C[C@H](Oc1cc(-c2ccn(-c3ccccc3)n2)nc(-c2noc3c2CCC[C@@]32CCCc3sc(N)c(C#N)c32)n1)[C@@H]1CCCN1C` [II-89] has an IC50 [1, 5] of 625 nM and an IC50 [2] of 453 nM.

For `CO[C@@H]1C[C@@H]([C@H](C)Oc2cc(-c3ccn(C)n3)nc(-c3noc4c3CCC[C@@]43CCCc4sc(N)c(C#N)c43)n2)N(C)C1` [II-91], the IC50 [1, 5] was 247 nM, the IC50 [2] was 136 nM and the fraction unbound [3] was 0.08.

In the case of `C[C@H](Oc1cc([C@@H]2CCOC2)nc(-c2noc3c2CCC[C@@]32CCCc3sc(N)c(C#N)c32)n1)[C@@H]1CCCN1C` [II-94], the IC50 ([1]; MKN-1, assay 1, CTG 120 h, read-out: MKN1 (assay 1) IC50) is reported as 32 nM, the IC50 [1, 5] is reported as 51 nM and the IC50 [2] is reported as 51 nM. For the same molecule, the fraction unbound [3] was 0.31.

— patent US20240174690A1, “ANNULATED 2-AMINO-3-CYANO THIOPHENES AND DERIVATIVES FOR THE TREATMENT OF CANCER” (BOEHRINGER INGELHEIM INTERNATIONAL GMBH, priority 2021, published 2024)
